{
  "source": "patent US9409904B2",
  "about": "“Compounds and compositions for use in augmentation of glucose” (YISSUM RESEARCH DEVELOPMENT COMPANY OF THE HEBREW …, priority 2011, dated 2016)",
  "key": {"AMPK": {"system": "AMPK", "assay": "Thr172 phosphorylation of AMPK in L6 myotubes, Western blot of whole cell lysates", "format": "cell-based", "description": "The effect of the various derivatives on the rate of glucose uptake in L6 myotubes was investigated. […] The abundance of GLUT1 and GLUT4 in the plasma membranes of L6 myotubes was determined in cells expressing GLUT-1myc or GLUT-4myc, as described before. […] In addition, the effect of compounds on the glucose—stimulated insulin secretion (GSIS) was investigated. Whole cell lysates were prepared as previously described with some minor modifications: the lysis buffer contained 50 mM Tris-HCl, pH 7.5, 1 mM EDTA, 1 mM EGTA, 1 mM Na3VO4, 150 mM NaCl, 50 mM NaF, 10 mM sodium-glycerophosphate, 5 mM sodium pyrophosphate, and 1 mM PMSF, supplemented with 0.1% (v/v) NP-40, 0.1% (v/v) 2-β-mercaptoethanol, and protease inhibitor cocktail (1:100 dilution). The cells were washed by ice-cold PBS, and 1 ml of lysis buffer was then added and incubated at 4° C. for 40 minutes. The resulting cell lysates were centrifuged at 8,700 g×30 minutes at 4° C. and the resulting supernatant fractions were separated and kept at −20° C. until used. Protein content in the supernatant was determined according to Bradford, using a BSA standard dissolved in the same buffer. […] Samples for Western blot analyses of GLUT1 and GLUT4 were prepared as described in [22]. The proteins were separated on 10% SDS-PAGE and Western blot analyses performed using antibodies according to our previously established protocols."}, "L6 myotubes [1]": {"system": "L6 myotubes", "assay": "Cytotoxic effects in L6 myotube cultures", "format": "cell-based", "details": "above 100 μM"}, "L6 myotubes [2]": {"system": "L6 myotubes", "assay": "[3H]-2-deoxy-D-glucose (dGlc) uptake assay in L6 myotubes", "format": "cell-based", "description": "The effect of the various derivatives on the rate of glucose uptake in L6 myotubes was investigated. […] The abundance of GLUT1 and GLUT4 in the plasma membranes of L6 myotubes was determined in cells expressing GLUT-1myc or GLUT-4myc, as described before. […] In addition, the effect of compounds on the glucose—stimulated insulin secretion (GSIS) was investigated.\nL6 myotubes were maintained as described in [21]. All experiments were conducted on fully differentiated myotubes.\nThe rate of [^3H]dGlc uptake in myotubes, in the absence or presence of insulin, was determined as described in [21]. […] […] The cultures were then rinsed 3 times with PBS at room temperature and incubated with PBS, pH 7.4, containing 0.1 mM dGlc and 1.0 μCi/ml [^3H]dGlc for 5 minutes at room temperature. At the end of the assay, the myotubes were lysed in 0.1% (w/v) SDS in water and taken for liquid scintillation."}, "GLUT4": {"system": "GLUT4", "assay": "Total GLUT4 content in whole cell lysates of L6 myotubes, Western blot", "format": "cell-based", "description": "(§1) Whole cell lysates were prepared as previously described with some minor modifications: the lysis buffer contained 50 mM Tris-HCl, pH 7.5, 1 mM EDTA, 1 mM EGTA, 1 mM Na3VO4, 150 mM NaCl, 50 mM NaF, 10 mM sodium-glycerophosphate, 5 mM sodium pyrophosphate, and 1 mM PMSF, supplemented with 0.1% (v/v) NP-40, 0.1% (v/v) 2-β-mercaptoethanol, and protease inhibitor cocktail (1:100 dilution). The cells were washed by ice-cold PBS, and 1 ml of lysis buffer was then added and incubated at 4° C. for 40 minutes. The resulting cell lysates were centrifuged at 8,700 g×30 minutes at 4° C. and the resulting supernatant fractions were separated and kept at −20° C. until used. Protein content in the supernatant was determined according to Bradford, using a BSA standard dissolved in the same buffer. Aliquots (5-60 μg of protein) were mixed with the sample buffer [62.5 mM Tris-HCl, pH 6.8, 2% (w/v) SDS, 10% (v/v) glycerol, 50 mM DTT, and 0.01% (w/v) bromophenol blue], heated at 95° C. for 5 minutes. Samples for Western blot analyses of GLUT1 and GLUT4 were prepared as described in [22]. The proteins were separated on 10% SDS-PAGE and Western blot analyses performed using antibodies according to our previously established protocols."}, "GLUT1": {"system": "GLUT1", "assay": "Total GLUT1 content in whole cell lysates of L6 myotubes, Western blot", "format": "cell-based", "description": "as §1"}, "diabetic KKAy mice [3]": {"system": "diabetic KKAy mice", "assay": "Intraperitoneal glucose tolerance test (IP-GTT) in KKAy mice", "format": "in vivo", "excerpt": "(§2) The effect of the various ethoxybenzo-thiazol derivatives on the blood glucose level in diabetic KKAy mice was investigated. The in vivo antihyperglycemic effect of the lead compound was investigated in hyperglycemic and hyperinsulinemic KKAy mice, an established animal model for T2DM, after subcutaneous injections. Venous blood samples from small tail clips were taken for glucose determination. Finally, to investigate the effect of the lead compound on whole body glucose disposal in the mice we performed standard IP-GTT tests following an overnight fast.\nA standard IP-GTT test was performed on mice after an overnight fast. Glucose in saline was injected intraperitoneally (1.5 g/kg body weight). Venous blood samples from small tail clips were taken for glucose determination using a glucometer (FreeStyle Freedom, Abbott Diabetes Care, Alamada, Calif.).\n(§3) The antihyperglycemic potential of 34 was investigated in an animal model of diabetes. Test compound was injected subcutaneously (75 mg per kg body weight, suspension in sesame oil, twice daily) to diabetic KKAy mice; control mice received the vehicle only. The blood glucose levels at day zero, 20.8±0.9 and 22.3±1.3 mM for the control and 34-treated groups, respectively, were taken as the reference 100% values in FIG. 4A. […] It should be noted, however, that despite the marked antihyperglycemic effects of 34, normoglycemia was not reached. To better evaluate the potential of 34, the glucose tolerance of treated KKAy mice was evaluated using a standard IP-GTT. The mice were treated with 34 as described above for two days, after which IP-GTT was performed after an overnight fast, as described. […] IP-GTT was performed following an overnight fast in mice treated with 34 or oil, as described herein above. […] The cells were grown in standard RPMI1640 complete culture medium, treated with 10 μM compound 20 and incubated for the indicate time periods. At the end of incubations the cells were taken for a standard GSIS assay described herein."}, "GLUT4myc": {"system": "GLUT4myc", "assay": "Colorimetric determination of surface GLUT4myc in L6 myotubes", "format": "cell-based", "details": "for abundance of GLUT4myc in the plasma membrane: 25 μM of 34, insulin", "description": "The colorimetric detection of surface GLUT4myc or GLUT1myc in L6 myotubes was performed as described in [7]. Briefly, cultured myotubes were incubated with rabbit anti-C-Myc antibody (1:200 dilution), washed and fixed with 3% formaldehyde, and further interacted with goat HRP-conjugated anti-rabbit IgG (1:2000 dilution). Following the washes, a solution of OPD was added, and the culture plates were taken for absorbance measurement at 492 nM to estimate the relative abundance of GLUT1myc or GLUT4myc on the plasma membrane of the myotubes. The GLUT1myc and GLUT4myc L6 cell cultures were the courtesy of Dr. A. Klip, Hospital for Sick Children (Toronto, ON, Canada).\nThe capacity of compound 34 to increase the rate of glucose uptake by increasing GLUT4 content in the plasma membrane of myotubes was tested. […] The cells expressing GLUT1myc or GLUT4myc were treated with 25 μM of 34 or DMSO as described above. At the end of the incubation, the cultures were taken for immunodetection of surface GLUT1myc (open bars) or GLUT4myc (black bars), as described herein above."}, "diabetic KKAy mice [4]": {"system": "diabetic KKAy mice", "assay": "Blood glucose level in diabetic KKAy mice after subcutaneous injection", "format": "in vivo", "details": "for reduction of blood glucose: 75 mg/kg s.c. twice daily in sesame oil", "excerpt": "as §2\nDiabetic male KKAy mice (8 to 12-week old, 20-25 g) were purchased from The Jackson Laboratory (Bar Harbor, Me.). The animals were routinely kept in 12-h light/dark cycles and provided with food and water ad libitum. Blood glucose levels at sacrifice ranged between 17-25 mmol/l. The ethics committee (IACUC) of the Hebrew University of Jerusalem approved the study protocol for animal welfare. The Hebrew University of Jerusalem is an AAALAC international accredited institution.\nas §3"}},
  "note": "“Also recorded” adds a separate entry of the source.",
  "data": [
    {"molecule": "CCC1SC(N)=NC1=O", "note": "(stereo not drawn) [Compound 3, 2-amino-5-ethylthiazol-4(5H)-one]", "values": [
      {"measurement": "time of return of Thr172 phosphorylation to the basal hypo-phosphorylated level", "setting": "AMPK; 100 μM", "result": 3, "unit": "h"},
      {"measurement": "Thr172 phosphorylation in AMPK / AMPK activation (result in words)", "setting": "AMPK; L6 myotubes", "result": "increased"},
      {"measurement": "time of maximal (peak) Thr172 phosphorylation in AMPK", "setting": "AMPK; incubation time", "result": 40, "unit": "min"},
      {"measurement": "cytotoxic effects", "setting": "L6 myotubes [1]", "result": "cytotoxic effects"},
      {"measurement": "rate of glucose uptake in L6 myotubes (result in words)", "setting": "L6 myotubes [2]", "result": "increase; also recorded: augmented"},
      {"measurement": "time of maximal glucose uptake stimulatory effect", "setting": "L6 myotubes [2]; 100 μM", "result": "≤ 5", "unit": "h"},
      {"measurement": "rate of glucose uptake compared to vehicle (DMSO) treated control", "setting": "L6 myotubes [2]; 100 μM, basal rate = 100%", "result": "131.4%±6.8%"},
      {"measurement": "activity at 100 µM", "setting": "L6 myotubes [2]; Rattus norvegicus, L6, 100 μM, Mean ± SD (n = 3), Table 1, read-out: Effect on glucose uptake [100 μM] in L6 myotubes (%)", "result": "131 ± 6.8", "unit": "%"},
      {"measurement": "maximal effective concentration, glucose uptake", "setting": "L6 myotubes [2]; dose response, 5 h (3) or 12 h (4, 15)", "result": 100, "unit": "µM"}
    ]},
    {"molecule": "CCOc1ccc2nc(SCc3nc4ccccc4s3)sc2c1", "note": "[Compound 34, 2-((benzothiazol-2-ylmethyl)thio)-6-ethoxybenzothiazole]", "values": [
      {"measurement": "time to significant Thr172 phosphorylation of AMPK", "setting": "AMPK; incubation time", "result": "≤ 1", "unit": "h"},
      {"measurement": "total content of GLUT4 in myotubes", "setting": "GLUT4", "result": "Neither compound altered"},
      {"measurement": "total content of GLUT1 in myotubes", "setting": "GLUT1", "result": "Neither compound altered"},
      {"measurement": "glucose tolerance (result in words)", "setting": "diabetic KKAy mice [3]; 75 mg/kg s.c. twice daily, two days", "result": "improved glucose tolerance; also recorded: significantly improved"},
      {"measurement": "IP-GTT area under the curve (AUC)", "setting": "diabetic KKAy mice [3]; two days of treatment, overnight fast, glucose 1.5 g/kg i.p.", "result": "753.6±142.2", "unit": "mmol glucose/l/min"},
      {"measurement": "improvement of total body glucose clearance", "setting": "diabetic KKAy mice [3]; two-day treatment", "result": "40%-50%"},
      {"measurement": "period required to exert action on GLUT4myc translocation", "setting": "GLUT4myc", "result": 5, "unit": "h"},
      {"measurement": "abundance of GLUT4myc in the plasma membrane", "setting": "GLUT4myc", "result": "induces GLUT-4; also recorded: increased"},
      {"measurement": "minimal effective concentration, glucose uptake", "setting": "L6 myotubes [2]", "result": 25, "unit": "µM"},
      {"measurement": "persistence of stimulatory effect on glucose uptake", "setting": "L6 myotubes [2]", "result": "up to 24 hours"},
      {"measurement": "rate of glucose uptake in L6 myotubes (result in words)", "setting": "L6 myotubes [2]", "result": "increase; also recorded: markedly augmented"},
      {"measurement": "stimulatory effect on glucose uptake in the presence of wortmannin or Akt/PKB inhibitor", "setting": "L6 myotubes [2]; 100 nM wortmannin or 100 nM Akt/PKB inhibitor added 30 min before", "result": "PI3K- and Akt/PKB-independent manner; also recorded: remained unaltered"},
      {"measurement": "increase of rate of glucose uptake, combined effect with insulin", "setting": "L6 myotubes [2]; 25 μM of 34 (5 hours) plus insulin 100 nM (last 20 minutes)", "result": "148%±29%"},
      {"measurement": "increase of rate of glucose uptake", "setting": "L6 myotubes [2]; 25 μM of 34, last 5 hours, serum free, 23.0 mM D-glucose, without insulin", "result": "75%±17%"},
      {"measurement": "increase of rate of glucose uptake", "setting": "L6 myotubes [2]; under similar experimental conditions (5 hours)", "result": 2.5, "unit": "fold"},
      {"measurement": "normoglycemia", "setting": "diabetic KKAy mice [4]; 75 mg/kg s.c. twice daily", "result": "not reached"},
      {"measurement": "reduction of blood glucose", "setting": "diabetic KKAy mice [4]; day 1", "result": "~30", "unit": "%"},
      {"measurement": "reduction of blood glucose", "setting": "diabetic KKAy mice [4]; day 2", "result": "~45", "unit": "%"},
      {"measurement": "reduction of blood glucose", "setting": "diabetic KKAy mice [4]; day 3", "result": "~50", "unit": "%"}
    ]},
    {"molecule": "insulin: Human insulin (Actrapid) purchased from Novo Nordisk [reference compound]", "values": [
      {"measurement": "total content of GLUT4 in myotubes", "setting": "GLUT4", "result": "Neither compound altered"},
      {"measurement": "total content of GLUT1 in myotubes", "setting": "GLUT1", "result": "Neither compound altered"},
      {"measurement": "time of effect on GLUT4myc translocation to the plasma membrane", "setting": "GLUT4myc", "result": 30, "unit": "min"},
      {"measurement": "abundance of GLUT4myc in the plasma membrane", "setting": "GLUT4myc", "result": "increased"},
      {"measurement": "increase of rate of glucose uptake", "setting": "L6 myotubes [2]; insulin 100 nM, last 20 minutes of incubation", "result": "45%±13%"}
    ]}
  ]
}
